Laboratory results from ChEMBL document CHEMBL1201862, “PubChem BioAssay data set” (2004).
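Following 48 hours of exposure in 96-well plates, responses at five concentrations were used to interpolate endpoints linearly. GI50 is the concentration that inhibits growth by half.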 Calls of active or inactive are those of the source. Rule as the data show it: active = GI50 up to about 1.1 µM and inactive = higher.

What was measured:
Assay in all cases: DTP human tumour cell line panel, 48 h
UO-31 = tested on: UO-31
UACC-257 = tested on: UACC-257
HT-29 = tested on: HT-29
UACC-62 = tested on: UACC-62
SF-268 = tested on: SF-268
A498 = tested on: A498
NCI-H226 = tested on: NCI-H226
NCI-H23 = tested on: NCI-H23
OVCAR-3 = tested on: OVCAR-3
M14 = tested on: M14
NCI-H522 = tested on: NCI-H522
LOX IMVI = tested on: LOX IMVI
SN12C = tested on: SN12C
SK-MEL-2 = tested on: SK-MEL-2
Hs-578T = tested on: Hs-578T
SNB-75 = tested on: SNB-75
HCT-116 = tested on: HCT-116
OVCAR-4 = tested on: OVCAR-4
SR = tested on: SR
RXF 393 = tested on: RXF 393

CCOC(=O)N1CCN(Cc2cc(=O)n3ccc(C)cc3n2)CC1
GI50 (UO-31): > 100 µM (inactive)
GI50 (UACC-257): > 100 µM (inactive)
GI50 (HT-29): > 100 µM (inactive)
GI50 (UACC-62): > 100 µM (inactive)
GI50 (SF-268): > 100 µM (inactive)
GI50 (A498): > 100 µM (inactive)
GI50 (NCI-H226): > 100 µM (inactive)
GI50 (NCI-H23): > 100 µM (inactive)
GI50 (OVCAR-3): > 100 µM (inactive)
GI50 (M14): > 100 µM (inactive)
GI50 (NCI-H522): > 100 µM (inactive)
GI50 (LOX IMVI): > 100 µM (inactive)
GI50 (SN12C): > 100 µM (inactive)
GI50 (SK-MEL-2): > 100 µM (inactive)
GI50 (Hs-578T): > 100 µM (inactive)
GI50 (SNB-75): > 100 µM (inactive)
GI50 (HCT-116): > 100 µM (inactive)
GI50 (OVCAR-4): > 100 µM (inactive)
GI50 (SR): > 100 µM (inactive)
GI50 (RXF 393): > 100 µM (inactive)

COc1ncc(C=C(C#N)C#N)c(OC)n1
GI50 (UO-31): 21.1 µM (inactive)
GI50 (UACC-257): 22.1 µM (inactive)
GI50 (HT-29): 40 µM (inactive)
GI50 (UACC-62): 33.8 µM (inactive)
GI50 (SF-268): 61.8 µM (inactive)
GI50 (A498): > 100 µM (inactive)
GI50 (NCI-H226): > 100 µM (inactive)
GI50 (NCI-H23): 31.3 µM (inactive)
GI50 (OVCAR-3): 57.9 µM (inactive)
GI50 (M14): 18.7 µM (inactive)
GI50 (NCI-H522): 16.7 µM (inactive)
GI50 (LOX IMVI): 30.2 µM (inactive)
GI50 (SN12C): 26.8 µM (inactive)
GI50 (SK-MEL-2): 32.3 µM (inactive)
GI50 (Hs-578T): 60.7 µM (inactive)
GI50 (SNB-75): > 100 µM (inactive)
GI50 (HCT-116): 26.1 µM (inactive)
GI50 (OVCAR-4): 48.9 µM (inactive)
GI50 (SR): 15.3 µM (inactive)
GI50 (RXF 393): > 100 µM (inactive)

COc1c(C)c(OC)c2c(c1O)[C@@H]1[C@@H]3Cc4c(OC)c(C)c(OC)c(O)c4[C@H](CNC(=O)c4ccc5ccccc5n4)N3[C@@H](C#N)[C@H](C2)N1C
GI50 (UO-31): 0.00227 µM (active)
GI50 (UACC-257): 0.00206 µM (active)
GI50 (HT-29): 0.000893 µM (active)
GI50 (UACC-62): 0.000411 µM (active)
GI50 (SF-268): 0.000883 µM (active)
GI50 (A498): 0.000629 µM (active)
GI50 (NCI-H226): 0.00143 µM (active)
GI50 (NCI-H23): 0.000459 µM (active)
GI50 (OVCAR-3): 0.000235 µM (active)
GI50 (M14): 0.000659 µM (active)
GI50 (NCI-H522): 0.000144 µM (active)
GI50 (LOX IMVI): 0.00026 µM (active)
GI50 (SN12C): 0.00103 µM (active)
GI50 (SK-MEL-2): 0.000296 µM (active)
GI50 (Hs-578T): 0.00124 µM (active)
GI50 (SNB-75): 0.00262 µM (active)
GI50 (HCT-116): 0.000491 µM (active)
GI50 (OVCAR-4): 0.00217 µM (active)
GI50 (SR): 0.000105 µM (active)
GI50 (RXF 393): 0.00136 µM (active)

O=C(O)c1cccc(/N=N/c2c(S(=O)(=O)O)ccc3c2C(=O)c2ccccc2C3=O)c1O
GI50 (UO-31): > 100 µM (inactive)
GI50 (UACC-257): > 100 µM (inactive)
GI50 (HT-29): > 100 µM (inactive)
GI50 (UACC-62): > 100 µM (inactive)
GI50 (SF-268): > 100 µM (inactive)
GI50 (A498): > 100 µM (inactive)
GI50 (NCI-H226): > 100 µM (inactive)
GI50 (NCI-H23): > 100 µM (inactive)
GI50 (OVCAR-3): > 100 µM (inactive)
GI50 (M14): > 100 µM (inactive)
GI50 (NCI-H522): > 100 µM (inactive)
GI50 (LOX IMVI): > 100 µM (inactive)
GI50 (SN12C): > 100 µM (inactive)
GI50 (SK-MEL-2): > 100 µM (inactive)
GI50 (Hs-578T): > 100 µM (inactive)
GI50 (SNB-75): > 100 µM (inactive)
GI50 (HCT-116): > 100 µM (inactive)
GI50 (OVCAR-4): > 100 µM (inactive)
GI50 (SR): > 100 µM (inactive)
GI50 (RXF 393): > 100 µM (inactive)

CCOC(=O)CSc1nc(N)c2c(-c3ccccc3)c3c(nc2n1)CCCC3
GI50 (UO-31): 25.1 µM (inactive)
GI50 (UACC-257): > 100 µM (inactive)
GI50 (HT-29): > 100 µM (inactive)
GI50 (UACC-62): > 100 µM (inactive)
GI50 (SF-268): > 100 µM (inactive)
GI50 (A498): > 100 µM (inactive)
GI50 (NCI-H226): > 100 µM (inactive)
GI50 (NCI-H23): > 100 µM (inactive)
GI50 (OVCAR-3): > 100 µM (inactive)
GI50 (M14): > 100 µM (inactive)
GI50 (NCI-H522): > 100 µM (inactive)
GI50 (LOX IMVI): > 100 µM (inactive)
GI50 (SN12C): > 100 µM (inactive)
GI50 (SK-MEL-2): > 100 µM (inactive)
GI50 (Hs-578T): 65.8 µM (inactive)
GI50 (SNB-75): 98.6 µM (inactive)
GI50 (HCT-116): > 100 µM (inactive)
GI50 (OVCAR-4): > 100 µM (inactive)
GI50 (SR): > 100 µM (inactive)
GI50 (RXF 393): > 100 µM (inactive)

O=C1N[C@@H]([C@H]2CC[C@H](Cl)CN2)C(=O)N[C@H]1[C@H]1CC[C@H](Cl)CN1
GI50 (UO-31): 1.04 µM (active)
GI50 (UACC-257): 2.26 µM (inactive)
GI50 (HT-29): 1.83 µM (inactive)
GI50 (UACC-62): 0.137 µM (active)
GI50 (SF-268): 0.466 µM (active)
GI50 (A498): 2.63 µM (inactive)
GI50 (NCI-H226): 1.04 µM (active)
GI50 (NCI-H23): 0.292 µM (active)
GI50 (OVCAR-3): 1.8 µM (inactive)
GI50 (M14): 0.158 µM (active)
GI50 (NCI-H522): 0.706 µM (active)
GI50 (LOX IMVI): 0.237 µM (active)
GI50 (SN12C): 0.243 µM (active)
GI50 (SK-MEL-2): 2.56 µM (inactive)
GI50 (Hs-578T): 5.06 µM (inactive)
GI50 (SNB-75): 0.507 µM (active)
GI50 (HCT-116): 0.743 µM (active)
GI50 (OVCAR-4): 2.77 µM (inactive)
GI50 (SR): 0.1 µM (active)
GI50 (RXF 393): 2.04 µM (inactive)
